Measurements as given in PMC12281485, “High-Throughput Screening of Potent Drug-like Molecules Targeting 17β-HSD10 for the Treatment of Alzheimer’s Disease and Cancer” (ACS Chemical Biology, 2025).
Where two headings read alike, the source gives them in different places.

How the values were obtained:
[1] = molecular target: T1, 17β-HSD10 (Homo sapiens, UniProt Q99714); assay: 17β-HSD10 enzyme inhibition dose-response assay (acetoacetyl-CoA/NADH, absorbance 340 nm); format: biochemical
T1 construct: Recombinant 17β-HSD10 was expressed and purified as previously described in Aitken et al; made in house
T1 sequence (Q99714 1-261): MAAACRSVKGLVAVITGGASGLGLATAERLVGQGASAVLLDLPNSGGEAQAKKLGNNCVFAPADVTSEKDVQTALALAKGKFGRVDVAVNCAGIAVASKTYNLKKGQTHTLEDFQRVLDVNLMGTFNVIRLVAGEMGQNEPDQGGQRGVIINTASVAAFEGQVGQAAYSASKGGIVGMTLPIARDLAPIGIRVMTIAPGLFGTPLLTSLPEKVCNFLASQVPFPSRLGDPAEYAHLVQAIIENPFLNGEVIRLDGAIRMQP
Description: Recombinant 17β-HSD10 was expressed and purified as previously described in Aitken et al.
17β-HSD10 screening was carried out as described in Aitken et al. with the exception that experiments were also conducted in clear-bottom 1536-well low-volume microplates (Corning) with a final assay volume of 20 μL. For primary screening, an endpoint assay format was adopted, in which an Echo acoustic liquid dispenser (Labcyte) was used to transfer 20 nL of either DMSO control […] or test compounds (10 μM) to the assay plate. 10 μL of the 17β-HSD10 enzyme in an assay buffer (2.5 nM) was then added to the plates using the Preddator liquid handling robot (Redd and Whyte), and plates were incubated at RT for 15 min. 10 μL of the substrate mixture (100 μM acetoacetyl-CoA and 100 μM NADH) was added with the Preddator. To start the reaction, the plates were left to incubate for 35 min at RT before the absorbance at 340 nm was read on the EnVision plate reader (PerkinElmer). For the kinetic assay format and dose-response follow-up experiments, the same protocol was adopted, except that the absorbance at 340 nm was monitored constantly for 45 min from immediately after the reaction was started.

[2] = molecular target: T1, 17β-HSD10; assay: Acetoacetyl-CoA and NADH enzyme kinetics (mode of inhibition); format: biochemical; conditions: for mode of inhibition with respect to acetoacetyl-CoA (AcAc): AcAc diluted from 1000 μM, 100 μM NADH; for mode of inhibition with respect to NADH: AcAc in excess at 800 μM, NADH diluted from 150 μM
Description: To determine the mode of inhibition, a matrix titration was used to calculate the kinetic parameters for acetoacetyl-CoA and NADH and the effect of 17β-HSD10 concentration upon reaction rate. Previously determined conditions as described in Aitken et al. were used. Data collected from the experiment were analyzed by plotting reaction progress curves to calculate the initial velocities, Vmax, and Km values using the Michaelis–Menten equation (XLFit, ID Business Solutions). Hanes Woolf plots were used to determine the mechanism of inhibition. Two compounds, ESC1002033 and ESC1002082, representative of the two unique clusters, were investigated for their mechanism of action against the substrates, NADH (Supplementary C, Figure S2) and AcetoAcetyl-CoA (AcAc) (Supplementary C, Figure S3). Both ESC1002033 and ESC1002082 inhibitors were tested as a 12-point serial dilution series with a maximal concentration of 2.5 μM. […] When investigating the effect of AcAc, it was diluted from 1000 μM with an excess of 100 μM NADH. Both inhibitors appear to have a similar mechanism of action. For NADH, with increasing concentration of the inhibitor, there is a decrease in Vmax (Figure SC1B) with no change in Km (Figure SC1C), which is characteristic of non-competitive (mixed) inhibition. This is also reflected by the convergence of the data to the left of the y axis on the Lineweaver–Burke plot (Figure SC1D). In contrast, with AcAc present, there was an increase in Kmapp with increasing inhibitor concentrations (Figure SC2C), which is characteristic of competitive inhibition. […] However, the data in Figure SC2D have been fitted for substrate inhibition (Y = V max × X/(Km + X × (1 + X/K i))), and the diagnostic Lineweaver–Burke plot also supports the conclusion that inhibition is competitive with AcAc (Figure SC2D).

[3] = Mouse hepatocyte metabolic stability; format: in vitro ADME; parameters: k (elimination constant): unit not given here; conditions: mouse hepatocytes; for Heps category: metabolism category; for Cl (clearance): limits of quantitation 0.5 and 50; for half-life: read-out: T1/2 (half-life)
Description: (§1) Hepatocyte isolation, hepatocyte incubations for metabolic stability, plasma protein binding (PPB) experiments, and LC/MS sample analysis were carried out as previously described in Brandon et al. and MacLeod et al.
XLfit (IDBS, UK) was used to calculate the exponential decay and the rate constant (k) from the ratio of the peak area of the test compound to the internal standard at each time point. […] Verapamil, 7-ethoxycoumarin, 7-hydroxycoumarin, and phthalazine were used as positive controls to confirm acceptable assay performance. […] Values were transferred to RStudio v1.3.1093 (Posit, Boston, MA, USA) for generation of scatter plots and heatmaps using the ggplot2 package (Wickham 2016).

[4] = system: HEK293 cells overexpressing 17β-HSD10; assay: LDH cytotoxicity assay; format: cell-based, human; conditions: 50 μM compound, 24 h, n = 3 ± SD
Description: Cell cytotoxicity was assessed via the measurement of LDH leakage into the culture medium using a commercially available kit from Pierce (Thermo Scientific cat no. 88953). This was carried out in accordance with the kit guidelines, with the activity of LDH being calculated from the change in absorbance at […]. Human embryonic kidney (HEK293) cells overexpressing 17β-HSD10 were cultured in phenol-red free media (10% FBS, 1 mM sodium pyruvate, 100 units penicillin, 0.1 mg mL^–1 streptomycin, and 2 mM L-glutamine) and seeded at a density of 10,000 cells per well (100 μL, 96-well plates). […] Treated cells were then incubated at 37 °C and CO2 (5%) for 24 h before the LDH assay was performed as per the manufacturer’s instructions. Spontaneous control (water) and maximum control (lysis buffer) were used in accordance with the kit guide. Absorbance was measured at 490 and 680 nm using the SpectraMaxM2e spectrophotometer. The measured LDH activity was used to calculate %cytotoxicity using the following equation (eq ): %cytotoxicity=(compoundtreatedLDHactivity−spontaneousLDHactivity)/(maximumLDHactivity−spontaneousLDHactivity)×100 1

[5] = system: HEK293 cells overexpressing 17β-HSD10; assay: Alamar Blue cell viability assay; format: cell-based, human; conditions: 50 μM compound, 24 h, n = 3 ± SD
Description: (§2) Cell viability was assessed via fluorescence change using the commercially available Alamar Blue from ThermoFisher. HEK293 cells overexpressing 17β-HSD10 were cultured in phenol-red free media (10% FBS, 1 mM sodium pyruvate, 100 units penicillin, 0.1 mg mL^–1 streptomycin, and 2 mM L-glutamine) and seeded at a density of 10,000 cells per well (100 μL, 96-well plates). […] Treated cells were then incubated at 37 °C and CO2 (5%) for 24 h before the assay was performed as per the manufacturer’s instructions. Fluorescence was measured at 530 nm excitation and 590 nm emission using the SpectraMaxM2e spectrophotometer.

[6] = molecular target: T1, 17β-HSD10; assay: (−)-CHANA fluorescence assay of cellular 17β-HSD10 activity; format: cell-based; conditions: read-out: cellular 17β-HSD10 activity mean pEC50 (converted)
Description: (−)–CHANA ((−)-cyclohexenyl amino naphthalene alcohol) is a fluorogenic probe that can be used to detect 17β-HSD10 activity in living cells. HEK293 17β-HSD10 cells were seeded at a density of 10,000 cells per well (100 μL, 96-well black plates) in phenol-red free media (10% FBS, 1 mM sodium pyruvate, 100 units penicillin, 0.1 mg mL^–1 streptomycin, and 2 mM L-glutamine). […] The fluorogenic probe (−)–CHANA was then added to each well to give a final assay concentration of 20 μM. Fluorescence was immediately measured using the FLUOstar Optima microplate reader (excitation = 380 nm, emission = 520 nm, orbital averaging = 3 mm), and the initial reaction was monitored for 3–4 h. EC50 was calculated from the control-subtracted triplicates using nonlinear regression (four parameters) of GraphPad Prism 5 software. The Final EC50 and SEM values were obtained as a mean of at least three independent measurements.

[7] = Mouse plasma protein binding; format: in vitro ADME; conditions: read-out: mouse PPB (% free)
Description: as §1

[8] = Alamar Blue cell viability assay; format: cell-based, human; conditions: human, HEK293 cells overexpressing 17β-HSD10, 50 μM compound, n = 3 ± SD, read-out: Alamar Blue % viability (50 μM dose)
Description: as §2

[9] = Table 2, chemically modified cluster hit compounds, read-out: 17β-HSD10 pIC50 (converted)
[10] = Table 5, read-out: mean 17β-HSD10 pIC50 (converted)
[11] = Table 4, 17β-HSD10 overexpressing HEK293 cells, CHANA fluorescence assay
[12] = Table 3, chemically modified singleton hit compound series, read-out: 17β-HSD10 pIC50 (converted)
[13] = Table 5, HEK293 17β-HSD10 cells, CHANA assay

SMILES | IC50 [1, 10] | k (elimination constant) [3] | Heps category [3] | Cl (clearance) [3] | half-life [3] | LDH % toxicity (50 μM dose) [4] | Alamar Blue % viability (50 μM dose) [5] | EC50 [6, 11] | IC50 [1, 12] | viability at 24 h, 50 μM [8] | EC50 [6, 13] | other results
CC(C)CN(C(=O)c1ccccc1F)c1cccc(N(C)Cc2cnc[nH]2)c1 [ESC1002033] | 200 nM | 0.013 | mod | 6.2 mL/min/g liver | 53.8 min |  |  |  |  |  |  | IC50 [1, 9]: 200 nM; mode of inhibition with respect to acetoacetyl-CoA (AcAc) [2]: competitively; mode of inhibition with respect to NADH [2]: non-competitively
COc1ccc(-c2ccccc2C2CCCN2C(=O)c2sccc2C)cn1 (stereo not shown) [ESC1002082] |  |  |  |  |  |  |  |  |  |  |  | LipE [1]: 1.45; LipE ([1]; Table 1, lipophilic efficiency): 1.45; mode of inhibition with respect to acetoacetyl-CoA (AcAc) [2]: competitively; mode of inhibition with respect to NADH [2]: non-competitively
COc1ccc(-c2ccccc2[C@H]2CCCN2C(=O)c2sccc2C)cn1 [ESC1002162] |  |  |  |  |  | 6.84 ± 0.02% | 78.79 ± 0.91% | 1130 nM |  |  |  | 17β-HSD10 pIC50 ([1]; Supplementary B, Table S1 and text, enantiomers): 6.31
Cc1ncc(CN(C)c2cccc(N(CC(C)C)C(=O)c3ccccc3F)c2)[nH]1 [ESC1002203] |  |  |  |  |  | 6.64 ± 0.03% | 82.98 ± 1.25% | 2460 nM |  |  |  | fold less potent than ESC1002033 ([1]; relative to ESC1002033): approximately 3 fold
COc1cccc(-c2ccccc2C2CCCN2C(=O)c2sccc2C)c1 (stereo not shown) [ESC1002421] |  |  |  |  |  | 5.16 ± 0.01% | 102.63 ± 1.32% | 671 nM | 186 nM |  |  | 
CC(C)CN(C(=O)c1c(F)cccc1F)c1cccc(N(C)Cc2c[nH]cn2)c1 [ESC1002456] | 138 nM | 0.018 | high | 8.6 mL/min/g liver | 38.5 min | 4.78 ± 0.01% |  | 141 nM |  | 79.2 ± 1.21% | 141 nM | IC50 [1, 9]: 138 nM; fraction unbound [7]: 0.089
Cc1ccsc1C(=O)N(CC(C)C)c1cccc(N(C)Cc2c[nH]cn2)c1 [ESC1002597] |  | 0.02 | Mod | 7.2 mL/min/g liver |  | 4.98 ± 0.04% | 78.78 ± 1.72% | 511 nM |  |  | 511 nM | mean 17β-HSD10 pIC50 ([1]; Table 5): 6.4; T1/2 (half-life) [3]: 46.2 min
O=C(c1sccc1Cl)N1CCCC1c1ccccc1-c1cccc(O)c1 (stereo not shown) [ESC1002755] | 18.6 nM | 0.22 | high | >50 mL/min/g liver | 3.1 min | 5.47 ± 0.04% |  | 28 nM | 20 nM | 85.3 ± 2.01% | 28 nM | fold improvement in activity/potency over hit ESC1002082 ([1]; relative to ESC1002082): 40 fold
COc1cccc(-c2ccccc2C2CCCN2C(=O)c2[nH]ncc2Cl)c1 (stereo not shown) [ESC1002757] | 105 nM | 0.13 | high | >50 mL/min/g liver | 5.3 min | 5.03 ± 0.02% |  | 266 nM | 115 nM | 89.52 ± 0.84% | 266 nM | LipE [1]: 2.76
O=C(c1sccc1Cl)N1CCCC1c1ccccc1-c1ccc(F)c(O)c1 (stereo not shown) [ESC1002838] |  |  |  |  |  | 5.58 ± 0.03% | 94.28 ± 1.31% | 232 nM | 51.3 nM |  |  | 
